Data from patent US20250339443A1, “METHOD FOR TREATING OR PREVENTING CALCIUM RELEASE-ACTIVATED CALCIUM CHANNEL OR DISCOIDIN DOMAIN RECEPTOR 2 RELATED DISORDERS OR CONDITIONS” (LumiSTAR Biotechnology, Inc., priority 2023, published 2025).

Target: T1, DDR2 (Homo sapiens, UniProt Q16832)
T1 construct: expressed in transfected cells; host or cells: HEK293T
T1 sequence (Q16832 22-855): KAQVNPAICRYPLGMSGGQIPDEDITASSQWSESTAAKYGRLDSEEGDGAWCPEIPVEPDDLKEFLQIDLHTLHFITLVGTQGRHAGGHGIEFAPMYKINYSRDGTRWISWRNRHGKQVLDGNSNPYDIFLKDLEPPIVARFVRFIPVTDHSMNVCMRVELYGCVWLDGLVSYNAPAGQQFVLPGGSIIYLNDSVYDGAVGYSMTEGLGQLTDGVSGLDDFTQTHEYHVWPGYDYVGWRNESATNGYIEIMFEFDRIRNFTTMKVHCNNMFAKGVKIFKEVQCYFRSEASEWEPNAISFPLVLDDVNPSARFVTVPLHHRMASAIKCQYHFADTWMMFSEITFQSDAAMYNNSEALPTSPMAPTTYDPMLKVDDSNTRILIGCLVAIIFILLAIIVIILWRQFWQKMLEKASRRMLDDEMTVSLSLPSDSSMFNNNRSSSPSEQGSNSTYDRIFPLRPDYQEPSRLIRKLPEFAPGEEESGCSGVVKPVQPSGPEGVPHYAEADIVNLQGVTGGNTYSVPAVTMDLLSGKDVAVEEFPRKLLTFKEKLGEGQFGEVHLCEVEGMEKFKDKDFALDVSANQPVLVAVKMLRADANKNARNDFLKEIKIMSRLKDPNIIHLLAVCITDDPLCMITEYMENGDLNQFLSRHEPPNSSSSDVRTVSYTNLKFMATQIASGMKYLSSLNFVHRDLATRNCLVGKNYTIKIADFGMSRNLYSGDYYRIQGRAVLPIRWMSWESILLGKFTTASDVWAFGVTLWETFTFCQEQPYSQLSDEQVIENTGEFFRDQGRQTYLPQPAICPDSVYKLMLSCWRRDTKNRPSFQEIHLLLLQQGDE
Experiment: DDR2 activation (anti-phosphotyrosine Western blot) in HEK293T cells overexpressing DDR2, collagen-stimulated
Format: cell-based
Conditions: 10 μM pretreatment 30 minutes, then 50 μg/mL type I collagen 12 hours
Method: FIG. 1A, FIG. 1B, FIG. 1C, FIG. 1D, FIG. 1E, FIG. 1F, FIG. 1G, FIG. 1H, FIG. 1I, FIG. 1J, FIG. 1K, FIG. 1L, FIG. 1M, and FIG. 1N show WRG-28 and atovaquone (Av) suppress the activation of DDR2 and calcium release-activated calcium (CRAC) channel. FIG. 1A indicates HEK293T cells were transiently overexpressed with DDR2 and then pretreated with different compounds (10 μM), including WRG-28, Av, donepezil hydrochloride (Dh), terazosin hydrochloride (Th), verapamil and flecainide for 30 minutes. Verapamil and flecainide were used as negative control here. After that, cells were treated with 50 μg/mL type I collagen for 12 hours. Cell lysates were harvested and subjected to Western blot analysis with antibodies against phosphotyrosine antibody (clone 4G10), DDR2, and β-actin. […] CRAC channel activity was evaluated by applying 1 μM thapsigargin (Thap.) in a calcium-free solution to deplete the endoplasmic reticulum calcium store, followed by the reintroduction of 2 mM Ca^2+ in an external solution. […] Further analyses are presented in FIG. 1I and FIG. 1J, where the second peak of each wave and rate of entry were analyzed. […] The Orai1 and Stim1 puncta in HEK293T cells overexpressed with CFP-Orai1/Stim1-mCherry were assessed. […]
Cell lysates were harvested in RIPA buffer (150 mM NaCl, 1 mM EGTA, 50 mM Tris pH 7.4, 10% glycerol, 1% Triton X-100, 1% sodium deoxycholate, 0.1% SDS, and protease inhibitor cocktail) and collected from culture dish with cell scrapers. […] The protein expression levels were assessed by specific primary antibodies, including antibodies against phosphotyrosine (clone 4G10; Millipore), DDR2 (R&D), α-SMA (Sigma), Collagen 1a1 (Boster), E-cadherin (BD Biosciences), SGLT2 (Proteintech), NHE1 (Novus) and β-actin (Clone C4, Millipore), followed by incubating with secondary antibodies conjugated with HRP and detected by ECL kit (Thermo Scientific).
To examine the impact of these compounds on DDR2 activation, HEK293T cells overexpressing DDR2 were pretreated with various compounds. […] The activation of DDR2 was evaluated using an anti-phosphotyrosine antibody. […]

activation of DDR2 (phosphotyrosine): suppress
SMILES: CCNS(=O)(=O)c1ccc(COc2ccc3nc4ccc(=O)cc-4oc3c2)cc1 [WRG-28]
